# According to the METLIN SMRT retention time set (Domingo-Almenara et al. 2019):
# Assay: gradient 5% acetonitrile 3 min, to 50% in 2 min, to 85% in 15 min, held 3 min, 100 µL/min
# Details: column: Zorbax Extend-C18 2.1 x 50 mm; eluents: water / acetonitrile, 0.1% formic acid
# Outline: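 Values are retention times taken from adduct peaks that software picked and an analyst inspected. The pure standards were run as mixtures of ~100 molecules on HPLC linked to a quadrupole time-of-flight mass spectrometer, in positive and negative ionization mode. A Zorbax Extend-C18 column (2.1 × 50 mm, 1.8 μm) was used at 100 μL/min with water and acetonitrile, each including 0.1% formic acid.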
row,SMILES,RP-LC retention time [s]
1,C=CCn1c(=O)c2ccccc2n(Cc2nc(-c3ccc(Br)cc3)no2)c1=O,1150
2,O=C(Cn1cccc(-c2nc(-c3ccc(F)cc3)no2)c1=O)NC1CCCCC1,834
3,CC1=C(c2ccc(Cl)cc2)S(=O)(=O)N=C1N1CCC(C(=O)NC(C)C)CC1,779
4,CC(=O)Nc1ccc(C2(C(=O)NCc3ccc(F)c(Cl)c3)CCC2)cc1,795
5,CCOc1nc2ccccc2nc1N1CCCC(C(=O)Nc2cc(C)c(Cl)cc2OC)C1 (centres undefined),1400
6,O=S(=O)(c1ccc2c(c1)-c1oncc1CO2)N1CCN(c2ccc(F)cc2)CC1,1040
7,CCCNC(=O)c1cc(-c2ccncc2)cn1Cc1ccccc1C,690
8,Cc1ccccc1CC(=O)Nc1ccc2c(c1)Sc1ncccc1C(=O)N2C(C)C,912
9,Cc1c(Cl)cccc1NC(=O)c1cnc(-c2ccccc2)nc1-c1ccncc1,954
10,CC(C)NC(=O)NCc1ccc2c(c1)N(C(=O)c1ccccc1)C(C)C2 (centres undefined),778
11,Cc1nc(-c2cccnc2)nc2c1CCC(=O)N2CC1CCCCC1,963
12,O=C(Cc1ccc(NC(=O)Nc2ccccc2Cl)cc1)NCC(F)(F)F,696
13,Cc1oc(-c2ccn[nH]2)cc1S(=O)(=O)Nc1ccc(F)c(Cl)c1,852
14,O=S(=O)(NCCN1CCN(c2ccccc2F)CC1)c1cc(F)ccc1F,594
15,CCn1ccc2oc(C)c(C(=O)N3CCN(c4ccc(Cl)cc4)CC3)c2c1=O,854
16,CCN1CCC2(CC1)OC(=O)C(C)=C2C(=O)Nc1cc(Cl)c(OC)cc1OC,643
17,COc1ccc(C)cc1NC(=O)Cn1nc(N2CCCC(C)C2)c2ccccc2c1=O (centres undefined),1260
18,NC(=O)c1ccc2c(c1)n(Cc1ccccc1)c(=O)c1ccnn12,674
19,CC(C)(C)NC(=O)NC1CCN(C(=O)C2CCCC2)C1 (centres undefined),678
20,CN(C)CCN(Cc1ccccc1)C(=O)Cn1c(=O)oc2ccccc21,645

row,SMILES,RP-LC retention time [s]
1,Cn1cc(C(CNC(=O)Nc2cccc(F)c2)c2cccnc2)c2ccccc21 (centres undefined),660
2,O=C(NCc1ccc2c(c1)OCO2)C1CCCN(c2ncc(-c3cccc(F)c3)cn2)C1 (centres undefined),998
3,CCOC(=O)c1ccc2nc(NC(=O)C3CCCCN3S(C)(=O)=O)sc2c1 (centres undefined),839
4,Cc1cccc(NC(=O)C2CCc3sc(C(=O)N(C)C)cc3C2)c1 (centres undefined),846
5,CCn1c(=O)c2c(cc(C)n2C)n(CC(=O)Nc2ccc(C)c(F)c2)c1=O,855
6,CCc1cc(-c2csc(S(=O)(=O)N(Cc3ccccc3)C(C)C)c2)on1,1170
7,Cc1ccc(-c2cc3c4nnc(SCC(=O)Nc5cccc(Cl)c5)n4ccn3n2)cc1C,1060
8,CC(C)Sc1nccn2nc(-c3cccs3)cc12,1280
9,CCOC(=O)COc1cc(-c2ccccc2)nc2ccc(NC(=O)COc3ccc(F)cc3)cc12,868
10,CCOC(=O)C1=C(CNc2ccc(F)cc2)NC(=O)NC1c1ccccc1 (centres undefined),868
11,CCOC(=O)c1cc(-c2cccc(OC)c2OC)no1,896
12,C[C@@H]1CN(C(=O)NC2CCCC2)C[C@H]1c1nc(-c2ccncc2)no1,671
13,CC(NC(=O)c1ccc2c(c1)OCO2)C(=O)Nc1nc2ccccc2[nH]1 (centres undefined),623
14,Cc1ccc(-c2noc(CC(=O)NC(C)c3ccc(C)cc3C)n2)cc1 (centres undefined),1080
15,COc1ccc(-c2nc3ncccn3c2Nc2ccc(C)cc2)cc1,744
16,Cc1ccc(Nc2nc(-c3cc(C)c(C)cc3C)cs2)nc1,1010
17,CCN1C(=O)c2cccnc2Sc2cc(NC(=O)c3ccc(C)cc3C)ccc21,918
18,NC(=O)c1ncn2c(=O)n(CCCl)nnc12,645
19,N#Cc1ccc(C(=O)N2CCCCC2c2nncn2CC2CC2)cc1 (centres undefined),677
20,COc1cc(OC)c(NC(=O)CN2CCC(C(=O)N3CC(C)CC(C)C3)CC2)cc1Cl (centres undefined),730

row,SMILES,RP-LC retention time [s]
1,Cc1ccc(S(=O)(=O)N2C[C@@H]3C[C@H](NC(=O)c4ccccc4)[C@H]2C3)cc1Cl,969
2,CC(C)NCc1ccc(-c2cc(Cl)ccc2Cl)o1,709
3,CCN1C(=O)c2cccnc2Sc2cc(NC(=O)c3ccccc3OC)ccc21,868
4,Cc1cc(=O)n(CC(=O)Nc2ccc3c(c2)OCCO3)c(N2CCCCC2)n1,645
5,O=C(NC1CCCCCC1)c1ccc2ccnc(N3CCN(c4ccccc4F)CC3)c2c1,973
6,COc1cccc(C2CC(c3ccc(Cl)cc3)=NC3(CCN(C)CC3)N2)c1O (centres undefined),606
7,OCCN1CCN(CC(O)COCc2ccc(Cl)cc2)CC1 (centres undefined),530
8,CCc1nc2c(c(=O)n1CC(=O)NCCCc1ccccc1)CN(Cc1ccccc1)CC2,1050
9,CCc1ccc2c(c1)-c1ccccc1S(=O)(=O)N2CC(=O)NCCN1CCOCC1,671
10,CC(C)N1C(=O)c2cccnc2Sc2cc(C(=O)N3CCCN(C)CC3)ccc21,596
11,Cc1ccccc1-c1nnc(CSc2nnc(NC(=O)c3ccccc3C(F)(F)F)s2)o1,972
12,COc1ccc(OCc2nc(-c3cccc(-c4ccnn4C)c3)no2)cc1,1010
13,O=C(NCCc1csc(-c2cccs2)n1)C1CCN(C(=O)c2cccc(Cl)c2)CC1,839
14,CCCC(=O)N1CCCN(C2=NS(=O)(=O)C(c3ccccc3)=C2C)CC1,740
15,Cc1cccc(Cn2c(=O)n(CCNC(=O)c3cccn3C)c3ncccc32)c1,826
16,CCc1nc(-c2cc(S(=O)(=O)N3CCC(C(=O)NC4CCCCCCC4)CC3)c(C)s2)no1,1130
17,Cc1ccc(CNC(=O)Cn2ncc3c(c2=O)N(CC2CC2)C(=O)CS3)cc1,784
18,CC1CCN(C(=O)CSc2nnc(-c3ccccc3F)o2)CC1,901
19,CC(C)CCN(CC(=O)N1CCNCC1)C(=O)c1cccc(Br)c1,654

# The next lines start with the values.
row,RP-LC retention time [s],SMILES
1,659,Cc1ccc(NC(=O)CSc2ccc(N3CCCC(C(=O)NC4CC4)C3)nn2)cc1 (centres undefined)
2,654,Cc1ccc(Cn2cc(-c3ccncc3)cc2C(=O)NCC2CCCO2)cc1 (centres undefined)
3,1300,CCCN1C(=O)COc2ccc(-c3noc(-c4ccc(C)cc4)n3)cc21
4,801,COc1ccc(S(=O)(=O)N2CCN(c3cc(C)nc(Nc4ccc(C)cc4)n3)CC2)cc1Cl
5,1100,O=S(=O)(Cc1ccc(F)cc1Cl)N1CCc2nc(-c3ccc(F)cc3)ncc2C1
6,1180,Cn1c(SCC(=O)N2CCCc3ccccc32)nc2cc(-c3ccccc3)sc2c1=O
7,568,C[C@@H]1CN(C(=O)Cc2cccnc2)C[C@H]1c1nc(-c2ccncc2)no1
8,1280,CCOc1ccc(NC(=O)c2c(O)c3cccnc3n(-c3cccc(F)c3)c2=O)cc1
9,570,COCC(=O)N1CCN(c2nc(CN3CCC(C)CC3)cs2)CC1
10,705,COc1nn(C)cc1C(=O)N1CCCC(C(=O)NCc2ccccc2OC(F)(F)F)C1 (centres undefined)
11,807,CCS(=O)(=O)N1CC(=O)N(c2cc(C)ccc2C)C(C)(C(=O)NCc2ccccc2)C1 (centres undefined)
12,848,Cc1ccc(NC(=O)C2(Cc3ccccc3)CCCCC(=O)N2)cc1 (centres undefined)
13,935,CCS(=O)(=O)N1CC(=O)N(c2cc(C)cc(C)c2)C(C)(C(=O)NC2CCCCCC2)C1 (centres undefined)
14,815,CC1CCN(C(=O)CN2C(=O)C3CCCCN3c3ccc(C(=O)N4CCCC4)cc32)CC1 (centres undefined)
15,1110,COc1ccc(N2CCN(c3cc(SCC(=O)Nc4ccccc4Cl)ncn3)CC2)cc1
16,990,Cc1cc(C)n(-c2ccc(C(=O)NCc3ccc(Cl)cc3)cn2)n1
17,845,CCc1ccccc1NC(=O)Cn1c(C)nc2onc(C)c2c1=O
18,822,COc1cc(NC(=O)N2CCC3(CC2)N=C(c2cccc(F)c2)C(=O)N3)cc(OC)c1
19,802,CCN1C(=O)c2cccnc2Sc2cc(NC(=O)c3ccccn3)ccc21
20,801,CC(C)Nc1ccc2nnc(C3CCC3)n2n1
21,832,Cc1nc(-c2noc(-c3ccc(F)cc3)n2)cn1CC(=O)NCc1ccc(F)cc1
22,646,O=C1CCN(C(=O)CC2CCCCC2)CCCOCCN1
23,690,Cc1nc(C)c(-c2cc(C(=O)N3CCN(c4ccc(F)cc4)CC3)n[nH]2)s1
24,973,CCn1c(C(=O)N2CCN(c3ccc(OC)cc3)CC2)cc2sccc21
25,912,Fc1ccc(C2Cn3nnc(-c4nc(-c5ccncc5)no4)c3CO2)cc1 (centres undefined)
26,989,O=C(O)c1ccc(Nc2nc(-c3ccc(Br)cc3)cs2)cc1
27,1110,COC1CN(c2cccc(F)c2)C12CCN(S(=O)(=O)c1cccc3cccnc13)CC2 (centres undefined)
28,577,CCCNC(=O)N1CCCCC1c1n[nH]c(C)n1 (centres undefined)
29,966,Cc1cc(C)cc(Nc2nc(C)cc(=O)n2CC(=O)Nc2ccc(Br)cc2)c1
30,980,Cc1cccc(-c2noc(C3CCCN3C(=O)Nc3ccccc3)n2)c1 (centres undefined)
